Columns and labels:
[1] = test system: Human liver cancer-derived cells (HepG2) cell aggregates; assay: Lipid droplet formation in HepG2 cell aggregates, refractive index distribution measuring method A2 (Example 1); type: cell-based; details: sodium oleate 0.5 mM, one day
Description: Human liver cancer-derived cells (HepG2) were cultured for one day in a cell culture vessel (“EZSPHERE” manufactured by AGC-Techno Glass Co., Ltd.) having low-cell-adhesive compartments to prepare cell aggregates. The low-cell-adhesive compartments are provided with a low-protein-adhesive coat. Cell aggregates were formed in a DMEM medium containing 10% fetal bovine serum in the low-cell-adhesive compartments. A portion of the cell aggregates was cultured for one day in a DMEM medium containing 1% fatty acid-free bovine serum albumin instead of fetal bovine serum, with addition of sodium oleate to a final concentration of 0.5 mM, to induce formation of lipid droplets. The remaining portion of the cell aggregates was cultured for an additional day in a DMEM medium containing 10% fetal bovine serum without the addition of oleic acid (control). […] In the obtained refractive index distribution data, a region where the refractive index (n) was greater than 1.337 was determined as a cell aggregate region. […] A region having a refractive index (n) of greater than 1.375 was determined as a lipid droplet region. The area of the lipid droplet region present in the cell aggregate region of interest was measured.

[2] = test system: HepG2 cell aggregate (fatty liver model); assay: Lipid droplet volume ratio by distance from center of gravity in HepG2 cell aggregates, measuring method C (Example 2); type: cell-based, Human
Description: Preparation of cell aggregates, homogenization, and induction of lipid droplet formation were carried out in the same manner as in Example 1. The refractive index distribution data was evaluated in accordance with Embodiment T3 (FIG. 42). The refractive index distribution data was obtained by the refractive index distribution measuring method C. In the obtained refractive index distribution data, the center of gravity C was calculated, and the refractive index distribution data was evaluated based on distances from the center of gravity C. It was divided into concentric circles at intervals of 2.5 μm from the center of gravity C, and the ratio of the volume of lipid droplets present therein was calculated. The lipid droplet region was set as a region having a refractive index n>1.37, cell region of spheroid as a region having a refractive index n>1.34 and a medium region as a region having a refractive index n≤1.34 and the calculation was carried out. The results of the cell aggregate of the oleic acid-treated HepG2 (fatty liver model) and the control (without oleic acid) were compared.

CCCCCCCC/C=C\CCCCCCCC(=O)O [oleic acid]
formation of lipid droplets (structures with high refractive index) ([1]; FIG. 41B): induced the formation of lipid droplets
area of the lipid droplet region per cell aggregate relative to control (without oleic acid) ([1]; lipid droplet region n>1.375, aggregates of maximum diameter 50 to 100 μm): 2.75 times
ratio of the volume of lipid droplets versus control (without oleic acid) ([2]; concentric circles at 2.5 μm intervals from center of gravity C, lipid droplet region n>1.37): greater ratio of the volume of lipid droplets
distance from the center of gravity where many lipid droplets exist ([2]; oleic acid-treated and control alike): about 20 μm

— patent US20250052678A1, “EVALUATION METHOD, EVALUATION DEVICE, AND INFORMATION PROCESSING PROGRAM” (HAMAMATSU PHOTONICS K.K., priority 2021, published 2025)
